Data as given in ChEMBL document CHEMBL1201862, “PubChem BioAssay data set” (2004).
The source made the active and inactive calls.

Experiments:
[1] = target: Peroxisome proliferator-activated receptor gamma/Nuclear receptor corepressor 2 (Homo sapiens, UniProt P37231+Q9Y618); assay type: functional
[2] = target: Photoreceptor-specific nuclear receptor (Homo sapiens, UniProt Q9Y5X4); assay type: functional;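 also: potency for compounds that break the NR2E3 corepressor complex and count as activators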
[3] = target: Peroxisome proliferator-activated receptor gamma/Nuclear receptor coactivator 1 (Homo sapiens, UniProt P37231); test: TR-FRET dose response biochemical High Throughput Screening assay for agonists of the steroid receptor coactivator 1 (SRC-1) recruitment by the peroxisome proliferator-activated receptor gamma (PPAR gamma): non-selective agonists. [Related pubchem assays (depositor defined):AID1300, AID1808, AID504735, AID631]; assay type: protein assay
[4] = target: Peroxisome proliferator-activated receptor gamma/Nuclear receptor coactivator 2 (Homo sapiens, UniProt P37231); test: (§1) TR-FRET dose response biochemical High Throughput Screening assay for agonists of the steroid receptor coactivator 2 (SRC-2) recruitment by the peroxisome proliferator-activated receptor gamma (PPAR gamma): non-selective agonists. [Related pubchem assays: 1297, 1032 ]; assay type: functional
[5] = target: Peroxisome proliferator-activated receptor gamma/Nuclear receptor coactivator 3 (Homo sapiens, UniProt P37231); test: as §1, with “3 (SRC-3)” for “2 (SRC-2)”, “1301 (Confirmation screen.), 1048 (Primary screen.)]” for “1297, 1032 ]”; assay type: functional
[6] = test system: HeLa; test: ATP-based viability loss in HeLa cells – cell-based, CellTiter-Glo luminescence, cherry-pick samples, cytotoxicity control for MITF activator project, dose response (AID 540259); assay type: functional; details: Homo sapiens
[7] = test system: Escherichia coli; test: microbe, parasite or virus in culture
[8] = target: T1, Oxysterols receptor LXR-beta (Homo sapiens, UniProt P55055); assay type: functional, cell-based;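 also: agonist activity at LXR measured by a cell-based luminescence readout across a dose range, run as a counterscreen for daf-12 agonists; HEK293 cells with Gal4-LXR fusion and GAL4-driven luciferase reporter; potency for activation of Gal4-LXR reporter so compounds are agonists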
T1 sequence (P55055 whole entry): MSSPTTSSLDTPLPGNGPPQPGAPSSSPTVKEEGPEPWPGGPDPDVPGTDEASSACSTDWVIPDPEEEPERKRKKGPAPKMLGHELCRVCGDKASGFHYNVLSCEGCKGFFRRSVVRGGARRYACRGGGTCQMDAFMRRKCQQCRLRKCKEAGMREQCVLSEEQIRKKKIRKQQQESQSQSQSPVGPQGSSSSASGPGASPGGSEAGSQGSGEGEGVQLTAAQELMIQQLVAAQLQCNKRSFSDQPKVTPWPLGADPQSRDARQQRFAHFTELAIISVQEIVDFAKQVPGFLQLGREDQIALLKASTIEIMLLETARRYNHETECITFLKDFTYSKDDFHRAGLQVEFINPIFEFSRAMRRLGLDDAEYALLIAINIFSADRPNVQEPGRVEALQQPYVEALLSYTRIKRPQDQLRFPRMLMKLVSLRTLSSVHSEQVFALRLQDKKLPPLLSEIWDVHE

[9] = Luminescence Cell-Based Dose Response HTS to Identify Activators of Luciferase Translation or Activity in H4 […] Cells. [Related pubchem assays: 1829 (Project Summary), 1814 (Primary HTS)]; assay type: functional
[10] = test system: Escherichia coli; test: microbe, parasite or virus in culture; remark: listed apart in the source
[11] = target: T2, Tyrosine-protein phosphatase non-receptor type 7 (Homo sapiens, UniProt P35236); assay type: functional
T2 sequence (P35236 whole entry): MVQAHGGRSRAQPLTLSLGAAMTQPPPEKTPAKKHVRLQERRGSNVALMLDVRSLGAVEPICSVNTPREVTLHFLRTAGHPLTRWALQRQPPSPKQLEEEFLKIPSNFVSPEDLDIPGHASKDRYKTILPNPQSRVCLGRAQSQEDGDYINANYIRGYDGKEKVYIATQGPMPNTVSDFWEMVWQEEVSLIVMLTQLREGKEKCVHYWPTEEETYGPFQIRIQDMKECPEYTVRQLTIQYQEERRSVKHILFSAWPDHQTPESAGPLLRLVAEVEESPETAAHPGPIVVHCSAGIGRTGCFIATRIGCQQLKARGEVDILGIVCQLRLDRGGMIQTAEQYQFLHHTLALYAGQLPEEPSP

[12] = target: T3, Tyrosine-protein phosphatase non-receptor type 22 (Homo sapiens, UniProt Q9Y2R2); assay type: functional
T3 sequence (Q9Y2R2 whole entry): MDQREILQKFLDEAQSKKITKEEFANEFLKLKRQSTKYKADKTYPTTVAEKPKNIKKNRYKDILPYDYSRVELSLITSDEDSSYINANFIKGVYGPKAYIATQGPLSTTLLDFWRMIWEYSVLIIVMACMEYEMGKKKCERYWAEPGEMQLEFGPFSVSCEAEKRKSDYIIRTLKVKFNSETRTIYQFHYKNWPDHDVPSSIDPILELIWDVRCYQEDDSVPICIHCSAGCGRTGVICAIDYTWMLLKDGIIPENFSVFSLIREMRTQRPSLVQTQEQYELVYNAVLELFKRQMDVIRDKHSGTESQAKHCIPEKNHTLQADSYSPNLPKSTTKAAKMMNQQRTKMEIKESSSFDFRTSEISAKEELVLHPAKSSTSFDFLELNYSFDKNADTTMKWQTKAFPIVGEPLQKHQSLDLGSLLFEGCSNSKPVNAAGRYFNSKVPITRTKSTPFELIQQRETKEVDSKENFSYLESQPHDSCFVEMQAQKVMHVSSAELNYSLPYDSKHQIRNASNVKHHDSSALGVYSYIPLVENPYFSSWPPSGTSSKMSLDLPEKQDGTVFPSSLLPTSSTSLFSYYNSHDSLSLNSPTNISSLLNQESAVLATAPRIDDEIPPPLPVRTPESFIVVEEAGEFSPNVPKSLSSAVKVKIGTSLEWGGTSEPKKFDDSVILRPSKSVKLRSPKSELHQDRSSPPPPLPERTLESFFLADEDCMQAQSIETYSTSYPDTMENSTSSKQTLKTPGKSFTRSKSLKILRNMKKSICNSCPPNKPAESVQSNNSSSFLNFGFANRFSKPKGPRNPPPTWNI

[13] = target: T3, Tyrosine-protein phosphatase non-receptor type 22; assay type: functional; remark: listed apart in the source
[14] = microbe, parasite or virus in culture; assay type: functional; details: Mycobacterium tuberculosis
[15] = target: T4, Alkaline phosphatase, tissue-nonspecific isozyme (Homo sapiens, UniProt P05186)
T4 sequence (P05186 whole entry): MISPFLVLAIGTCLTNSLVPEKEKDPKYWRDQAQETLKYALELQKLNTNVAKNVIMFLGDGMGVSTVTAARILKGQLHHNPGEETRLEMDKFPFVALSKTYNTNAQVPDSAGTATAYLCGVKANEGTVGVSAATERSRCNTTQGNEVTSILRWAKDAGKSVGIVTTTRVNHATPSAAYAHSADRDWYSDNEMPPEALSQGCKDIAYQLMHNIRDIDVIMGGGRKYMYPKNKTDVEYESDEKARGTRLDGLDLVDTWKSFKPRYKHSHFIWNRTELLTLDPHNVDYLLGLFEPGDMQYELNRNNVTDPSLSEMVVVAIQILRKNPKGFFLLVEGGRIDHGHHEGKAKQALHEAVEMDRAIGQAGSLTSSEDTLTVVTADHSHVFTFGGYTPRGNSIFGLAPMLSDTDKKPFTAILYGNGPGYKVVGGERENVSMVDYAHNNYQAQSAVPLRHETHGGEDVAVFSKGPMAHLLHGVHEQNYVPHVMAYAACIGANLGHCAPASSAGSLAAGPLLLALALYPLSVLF

[16] = target: Intestinal-type alkaline phosphatase (Mus musculus, UniProt P24822); test: PubChem AID 488785; assay type: functional
[17] = target: Intestinal-type alkaline phosphatase (Homo sapiens, UniProt P09923); test: inhibition of human intestinal alkaline phosphatase – biochemical, dose response (AID 488876); assay type: functional
[18] = target: T5, Streptokinase A (Streptococcus pyogenes serotype M1, UniProt P10520); test: viability-normalized secreted streptokinase activity reduction – plasminogen activation absorbance, OD405, dose response (AID 1914); assay type: functional, Streptococcus pyogenes M1 GAS;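 also: secreted streptokinase activity via plasminogen activation per viability signal from cell pellet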
T5 sequence (P10520 whole entry): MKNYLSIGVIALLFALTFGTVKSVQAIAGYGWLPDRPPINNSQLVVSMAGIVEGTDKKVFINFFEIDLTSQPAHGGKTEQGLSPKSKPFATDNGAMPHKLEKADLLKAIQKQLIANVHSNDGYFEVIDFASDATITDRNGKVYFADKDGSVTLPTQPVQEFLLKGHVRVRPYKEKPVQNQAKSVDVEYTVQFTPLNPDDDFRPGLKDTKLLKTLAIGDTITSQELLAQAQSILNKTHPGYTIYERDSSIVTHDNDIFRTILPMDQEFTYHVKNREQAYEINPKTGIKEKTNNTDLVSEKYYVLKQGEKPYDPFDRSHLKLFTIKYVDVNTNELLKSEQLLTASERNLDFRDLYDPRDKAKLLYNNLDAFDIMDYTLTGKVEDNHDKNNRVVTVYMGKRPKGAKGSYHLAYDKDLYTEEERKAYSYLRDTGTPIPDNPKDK

[19] = target: T4, Alkaline phosphatase, tissue-nonspecific isozyme; test: TNAP enzyme inhibition by screening hits, dose response, selectivity assay for mouse IAP inhibitor project, biochemical, human TNAP, uHTS hits (AID 488906); assay type: functional
[20] = target: SUMO-activating enzyme (Homo sapiens, UniProt Q9UBT2); test: blockers of UBC9-mediated SUMO conjugation – biochemical, AlphaScreen, SUMOylation inhibitor project, confirmation (AID 2018); assay type: functional
[21] = target: Mitogen-activated protein kinase 10 (Homo sapiens, UniProt P53779); test: Dose response biochemical screening assay for inhibitors of c-Jun N-Terminal Kinase 3 (JNK3). [Related pubchem assays: 746 ]
[22] = target: T6, Mannose-6-phosphate isomerase (Homo sapiens, UniProt P34949); test: phosphomannose isomerase inhibition – biochemical, fluorescence intensity, confirmation (AID 1535)
T6 sequence (P34949 whole entry): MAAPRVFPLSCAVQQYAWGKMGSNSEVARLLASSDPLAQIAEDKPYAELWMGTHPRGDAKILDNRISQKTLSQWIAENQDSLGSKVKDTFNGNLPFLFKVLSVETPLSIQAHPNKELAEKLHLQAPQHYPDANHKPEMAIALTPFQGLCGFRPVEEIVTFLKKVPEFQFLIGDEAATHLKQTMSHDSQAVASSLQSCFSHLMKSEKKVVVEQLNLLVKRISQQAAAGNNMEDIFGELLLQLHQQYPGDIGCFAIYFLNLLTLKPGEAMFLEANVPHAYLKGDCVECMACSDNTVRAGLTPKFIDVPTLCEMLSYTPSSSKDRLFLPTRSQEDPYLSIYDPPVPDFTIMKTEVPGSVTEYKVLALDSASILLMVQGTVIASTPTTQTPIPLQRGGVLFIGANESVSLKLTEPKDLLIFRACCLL

[23] = target: Phosphomannomutase 2 (Homo sapiens, UniProt O15305); test: Counter screen SAR assay for PMM2 inhibitors via a fluorescence intensity assay. [Related pubchem assays (depositor defined):AID1545, AID1574]
[24] = target: Cytochrome P450 2D6 (Homo sapiens, UniProt P10635);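 also: CYP2D6 member of a cytochrome P450 panel assay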
[25] = target: T7, Cytochrome P450 1A2 (Homo sapiens, UniProt P05177);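 also: PubChem cytochrome P450 panel assay, CYP1A2 panel member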
T7 sequence (P05177 whole entry): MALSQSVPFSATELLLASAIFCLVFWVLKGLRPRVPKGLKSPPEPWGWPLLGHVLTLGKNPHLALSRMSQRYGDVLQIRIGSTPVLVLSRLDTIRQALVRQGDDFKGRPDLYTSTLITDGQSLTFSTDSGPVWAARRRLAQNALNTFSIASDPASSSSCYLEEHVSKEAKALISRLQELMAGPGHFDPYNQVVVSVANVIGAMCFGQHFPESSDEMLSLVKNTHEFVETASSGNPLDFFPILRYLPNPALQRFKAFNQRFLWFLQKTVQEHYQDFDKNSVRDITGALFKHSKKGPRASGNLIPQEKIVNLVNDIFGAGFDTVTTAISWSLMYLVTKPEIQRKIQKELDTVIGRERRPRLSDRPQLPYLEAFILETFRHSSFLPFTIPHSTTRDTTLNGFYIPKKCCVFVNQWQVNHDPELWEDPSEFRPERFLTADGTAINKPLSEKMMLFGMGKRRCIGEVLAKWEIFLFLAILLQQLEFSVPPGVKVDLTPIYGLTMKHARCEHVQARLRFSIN

Peroxisome proliferator-activated receptor gamma/Nuclear receptor coactivator 2, sequence (P37231 whole entry): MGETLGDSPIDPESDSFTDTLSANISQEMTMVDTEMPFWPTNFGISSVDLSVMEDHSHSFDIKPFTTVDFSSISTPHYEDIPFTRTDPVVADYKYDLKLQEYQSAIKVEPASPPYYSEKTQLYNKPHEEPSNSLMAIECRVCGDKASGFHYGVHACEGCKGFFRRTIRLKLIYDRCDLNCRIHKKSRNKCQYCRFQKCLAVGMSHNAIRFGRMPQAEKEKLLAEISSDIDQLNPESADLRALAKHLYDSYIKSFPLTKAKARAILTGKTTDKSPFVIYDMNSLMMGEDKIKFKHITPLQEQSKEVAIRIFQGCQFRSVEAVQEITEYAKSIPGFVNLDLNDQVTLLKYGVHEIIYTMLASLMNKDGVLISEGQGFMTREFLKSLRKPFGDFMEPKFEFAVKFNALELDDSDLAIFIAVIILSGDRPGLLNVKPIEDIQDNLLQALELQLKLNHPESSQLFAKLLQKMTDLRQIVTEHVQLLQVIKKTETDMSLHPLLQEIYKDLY
Peroxisome proliferator-activated receptor gamma/Nuclear receptor coactivator 2, sequence (Q15596 whole entry, further chain): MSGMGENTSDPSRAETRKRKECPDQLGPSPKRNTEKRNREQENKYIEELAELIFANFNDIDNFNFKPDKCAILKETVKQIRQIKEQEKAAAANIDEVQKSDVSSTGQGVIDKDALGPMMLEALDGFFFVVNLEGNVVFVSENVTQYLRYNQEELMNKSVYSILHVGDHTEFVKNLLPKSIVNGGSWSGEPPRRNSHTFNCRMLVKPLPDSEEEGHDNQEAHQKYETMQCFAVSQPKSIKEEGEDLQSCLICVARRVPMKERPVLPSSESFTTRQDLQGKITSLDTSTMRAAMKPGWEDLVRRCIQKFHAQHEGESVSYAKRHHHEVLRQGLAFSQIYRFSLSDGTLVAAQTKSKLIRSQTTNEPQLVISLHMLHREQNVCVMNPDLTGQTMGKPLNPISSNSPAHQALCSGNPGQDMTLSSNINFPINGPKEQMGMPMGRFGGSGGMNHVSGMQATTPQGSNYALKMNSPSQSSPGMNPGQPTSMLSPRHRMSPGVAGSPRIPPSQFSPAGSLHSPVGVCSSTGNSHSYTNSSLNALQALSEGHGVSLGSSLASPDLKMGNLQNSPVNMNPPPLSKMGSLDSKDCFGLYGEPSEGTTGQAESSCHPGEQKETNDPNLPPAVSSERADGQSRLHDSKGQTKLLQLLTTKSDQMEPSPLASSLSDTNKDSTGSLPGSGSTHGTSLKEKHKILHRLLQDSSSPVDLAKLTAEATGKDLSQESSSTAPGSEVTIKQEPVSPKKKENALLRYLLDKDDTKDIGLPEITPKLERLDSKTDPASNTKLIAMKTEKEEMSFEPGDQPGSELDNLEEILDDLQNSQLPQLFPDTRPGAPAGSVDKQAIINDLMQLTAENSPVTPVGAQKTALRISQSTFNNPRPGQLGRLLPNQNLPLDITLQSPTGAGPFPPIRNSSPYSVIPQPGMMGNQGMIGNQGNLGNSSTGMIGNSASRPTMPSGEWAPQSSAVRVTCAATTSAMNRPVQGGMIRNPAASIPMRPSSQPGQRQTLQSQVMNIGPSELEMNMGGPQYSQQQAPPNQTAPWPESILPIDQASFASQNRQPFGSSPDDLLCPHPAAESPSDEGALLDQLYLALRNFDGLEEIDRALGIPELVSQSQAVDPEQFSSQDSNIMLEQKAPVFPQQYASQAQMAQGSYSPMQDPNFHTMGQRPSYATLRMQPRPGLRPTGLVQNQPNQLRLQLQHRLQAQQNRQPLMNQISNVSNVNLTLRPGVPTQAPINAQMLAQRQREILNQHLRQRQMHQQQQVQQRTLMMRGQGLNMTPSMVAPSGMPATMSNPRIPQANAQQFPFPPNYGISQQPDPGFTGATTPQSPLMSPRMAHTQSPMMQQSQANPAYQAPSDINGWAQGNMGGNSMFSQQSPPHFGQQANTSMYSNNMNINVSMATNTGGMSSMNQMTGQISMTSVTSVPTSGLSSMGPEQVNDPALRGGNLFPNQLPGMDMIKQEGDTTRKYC
Peroxisome proliferator-activated receptor gamma/Nuclear receptor coactivator 1, sequence (P37231 whole entry): as the sequence (P37231 whole entry) above
Peroxisome proliferator-activated receptor gamma/Nuclear receptor coactivator 1, sequence (Q15788 whole entry, further chain): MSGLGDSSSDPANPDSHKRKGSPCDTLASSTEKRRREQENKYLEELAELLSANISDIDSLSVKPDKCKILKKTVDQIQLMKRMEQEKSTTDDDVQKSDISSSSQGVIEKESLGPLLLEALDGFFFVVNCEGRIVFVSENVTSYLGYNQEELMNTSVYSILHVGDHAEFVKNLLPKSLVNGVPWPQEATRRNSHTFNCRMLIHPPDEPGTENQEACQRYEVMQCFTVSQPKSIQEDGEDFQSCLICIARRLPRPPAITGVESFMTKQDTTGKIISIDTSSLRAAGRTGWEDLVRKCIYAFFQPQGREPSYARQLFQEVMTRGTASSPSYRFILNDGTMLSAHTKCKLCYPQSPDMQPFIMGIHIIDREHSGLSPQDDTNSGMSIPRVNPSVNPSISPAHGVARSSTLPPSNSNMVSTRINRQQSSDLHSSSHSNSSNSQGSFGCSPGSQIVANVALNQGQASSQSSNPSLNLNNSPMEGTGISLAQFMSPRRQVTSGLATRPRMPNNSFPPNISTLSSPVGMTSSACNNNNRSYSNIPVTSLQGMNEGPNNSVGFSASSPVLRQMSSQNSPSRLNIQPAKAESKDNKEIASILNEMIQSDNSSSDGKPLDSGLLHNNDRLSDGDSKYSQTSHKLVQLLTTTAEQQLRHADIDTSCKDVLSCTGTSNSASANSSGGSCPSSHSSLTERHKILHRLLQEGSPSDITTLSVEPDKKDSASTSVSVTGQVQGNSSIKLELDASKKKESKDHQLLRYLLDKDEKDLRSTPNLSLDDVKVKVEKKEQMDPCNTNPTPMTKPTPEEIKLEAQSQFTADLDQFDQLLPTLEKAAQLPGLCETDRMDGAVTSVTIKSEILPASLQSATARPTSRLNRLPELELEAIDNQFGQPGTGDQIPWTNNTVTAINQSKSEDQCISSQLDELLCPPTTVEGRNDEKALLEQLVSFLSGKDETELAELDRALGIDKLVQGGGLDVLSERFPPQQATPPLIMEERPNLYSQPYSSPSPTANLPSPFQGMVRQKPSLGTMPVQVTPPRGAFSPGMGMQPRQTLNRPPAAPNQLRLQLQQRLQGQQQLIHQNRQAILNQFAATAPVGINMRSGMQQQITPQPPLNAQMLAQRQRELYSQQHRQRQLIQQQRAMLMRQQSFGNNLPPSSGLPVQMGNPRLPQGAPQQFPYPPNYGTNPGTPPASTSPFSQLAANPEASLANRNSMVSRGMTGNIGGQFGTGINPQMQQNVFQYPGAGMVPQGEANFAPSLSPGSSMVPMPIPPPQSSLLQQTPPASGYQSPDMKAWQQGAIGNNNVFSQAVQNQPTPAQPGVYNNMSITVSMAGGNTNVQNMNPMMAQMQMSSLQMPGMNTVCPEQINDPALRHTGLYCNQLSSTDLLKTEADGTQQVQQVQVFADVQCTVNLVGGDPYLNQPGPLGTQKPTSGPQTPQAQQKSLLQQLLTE
Cytochrome P450 2D6, sequence (P10635 whole entry): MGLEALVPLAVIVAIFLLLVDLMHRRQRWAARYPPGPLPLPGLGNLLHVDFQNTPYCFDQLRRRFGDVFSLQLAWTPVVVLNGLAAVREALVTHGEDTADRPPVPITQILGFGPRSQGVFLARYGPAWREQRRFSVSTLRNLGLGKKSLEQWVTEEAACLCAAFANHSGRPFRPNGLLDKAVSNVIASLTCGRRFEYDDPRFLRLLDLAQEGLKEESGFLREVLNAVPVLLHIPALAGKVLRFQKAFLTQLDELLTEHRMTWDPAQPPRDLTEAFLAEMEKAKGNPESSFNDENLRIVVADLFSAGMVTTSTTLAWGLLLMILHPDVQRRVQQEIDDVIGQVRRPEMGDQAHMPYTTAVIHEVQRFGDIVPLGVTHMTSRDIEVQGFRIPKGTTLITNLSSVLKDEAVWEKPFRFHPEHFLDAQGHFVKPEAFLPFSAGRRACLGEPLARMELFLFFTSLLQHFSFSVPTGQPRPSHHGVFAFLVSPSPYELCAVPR
Intestinal-type alkaline phosphatase (Mus musculus, UniProt P24822), sequence (P24822 whole entry): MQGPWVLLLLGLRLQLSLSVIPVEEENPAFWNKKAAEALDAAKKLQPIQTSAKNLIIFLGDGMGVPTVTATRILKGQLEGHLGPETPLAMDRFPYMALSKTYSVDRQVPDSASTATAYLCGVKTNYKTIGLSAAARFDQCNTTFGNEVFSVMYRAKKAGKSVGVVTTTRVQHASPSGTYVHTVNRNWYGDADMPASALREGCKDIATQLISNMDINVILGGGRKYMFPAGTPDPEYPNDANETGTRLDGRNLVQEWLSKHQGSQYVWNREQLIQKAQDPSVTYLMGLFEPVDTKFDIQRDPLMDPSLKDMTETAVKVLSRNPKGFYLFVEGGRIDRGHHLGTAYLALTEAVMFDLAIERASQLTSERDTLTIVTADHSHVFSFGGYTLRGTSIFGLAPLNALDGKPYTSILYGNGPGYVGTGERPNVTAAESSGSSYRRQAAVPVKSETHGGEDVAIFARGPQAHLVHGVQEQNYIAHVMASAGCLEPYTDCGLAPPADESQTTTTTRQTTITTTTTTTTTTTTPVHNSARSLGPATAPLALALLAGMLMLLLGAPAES

SMILES: O=c1oc2cc(O)c(Cl)cc2c2ccccc12
- IC50 [1]: 1.39 µM (active)
- IC50 [2]: > 39.8 µM (not active)
- EC50 [3]: > 79.4 µM (inactive)
- EC50 [4]: 3.81 µM (active)
- EC50 [5]: > 79.4 µM (not active)

SMILES: c1ccc2nc(-c3nccs3)ccc2c1
- AC50 [6]: 57.5 µM (active)

SMILES: COc1ccc(/C=C2\SC(=O)N(CCNC(=O)C3CC4C=CC3C4)C2=O)cc1 (configuration not stated)
- AC50 [7]: > 380 µM (inactive)
- EC50 [8]: > 67.5 µM (inactive)
- EC50 [9]: 164 nM (active)
- AC50 [10]: 23.7 µM (active)

SMILES: CC(=O)NS(=O)(=O)c1ccc(NC(=O)C2C3C=CC(C3)C2C(=O)O)cc1 (configuration not stated)
- IC50 [11]: > 79.4 µM (inactive)
- IC50 [12]: > 79.4 µM (inactive)
- IC50 [13]: > 79.4 µM (inactive)

SMILES: CCCc1ccc2oc(C(=O)N(C)Cc3nccs3)c(C)c2c1
- CC50 [14]: 21.8 µM (active)
- AC50 [7]: > 380 µM (inactive)
- AC50 [10]: 31.7 µM (active)

SMILES: COc1ccc(CNC(=O)c2cc(-c3ccccc3O)[nH]n2)cc1
- IC50 [11]: > 79.4 µM (inactive)
- IC50 [12]: > 79.4 µM (inactive)
- IC50 [13]: > 79.4 µM (inactive)
- EC50 [15]: > 100 µM (not active)

SMILES: FC(F)Sc1ccc(NC(=S)NC(c2ccccc2)c2ccccc2)cc1
- IC50 [16]: 0.998 µM (active)
- IC50 [17]: > 100 µM (inactive)
- EC50 [18]: > 150 µM (not active)
- IC50 [19]: 41.1 µM (active)

SMILES: O=C(Nc1cccc2nsnc12)c1ccc(-c2ccc(Br)cc2)o1
- IC50 [20]: 9.92 µM (active)

SMILES: CCOc1ccc(C(=O)C2=C(O)C(=O)N(c3cc(C)on3)C2c2ccccc2OC)cc1 (configuration not stated)
- IC50 [21]: > 93.1 µM (not active)
- EC50 [3]: > 79.4 µM (inactive)
- EC50 [4]: > 26.5 µM (not active)
- EC50 [5]: > 79.4 µM (not active)

SMILES: CCc1nnc(/N=c2\ssnc2Cl)s1
- IC50 [22]: 13.1 µM (active)
- IC50 [23]: > 100 µM (inactive)

SMILES: COc1cccc(CNC(=O)CCNS(=O)(=O)c2ccc3[nH]c(=O)oc3c2)c1
- IC50 [16]: 13.9 µM (active)
- IC50 [17]: > 100 µM (inactive)
- IC50 [19]: 63.2 µM (active)

SMILES: Cc1ccc(N2C(=O)c3[nH]nc(C)c3C2c2ccccn2)cc1 (configuration not stated)
- AC50 [24]: inconclusive

SMILES: O=C(O)[C@@H]1[C@@H](C(=O)O)[C@]23C[C@@]2(C(=O)O)[C@]2(C(=O)O)CCC3=C3CCCC312
- AC50 [24]: inconclusive
- AC50 [25]: 2.51 µM (inconclusive)
